These results are taken from patent US11020398B2, “Amino-pyrrolopyrimidinone compounds and methods of use thereof” (ArQule, Inc., priority 2016, dated 2021).

The target of assay [1] is full-length activated BTK mutant C481S (Homo sapiens (Human), UniProt Q06187, C481S). The experiment in a line: AlphaScreen assay, BTK mutant C481S. It is filed as biochemical. Conditions: for inhibition at 10 µM: read-out: BTK-C481S % @ 10 uM, @ 10 uM. The procedure: (§1) The activated BTK was frozen in 50 μl aliquots (125-150 μg/ml).
(§2) BTK activity was assayed using a PLCγ2-derived biotinylated peptide substrate (biotin-[…]-OH) and AlphaScreen™ (Amplified Luminescent Proximity Homogeneous Assay) technology. The extent of peptide phosphorylation was determined by using acceptor beads conjugated to phosphotyrosine antibody that recognized the phosphorylated peptide and donor beads conjugated to streptavidin that binds to the biotin on the peptide. Excitation of the donor beads converted ambient oxygen to excited singlet oxygen which when in close proximity to acceptor beads, reacted with acceptor beads resulting in signal amplification.
(§3) Test inhibitors and controls were prepared in 10% DMSO at 10-fold the desired final concentration and added to each well of a reaction plate (Corning 96-well half-area solid white nonbinding surface plate) in a volume of 2.5 μl. […] The plate was incubated for 120 min at room temperature and the reaction stopped by the addition of 10 μl stop/detection mixture containing 35 mM EDTA, 50 ug/ml AlphaScreen™ Streptavidin Donor beads (final concentration is 500 ng/well) and AlphaScreen™ Phospho-tyrosine (P-Tyr-100) Acceptor beads (final concentration is 500 ng/well) under green light conditions. The plate was incubated overnight at room temperature in the dark and the plates read on the BMG PolarStar Omega ([…], Gain=4000). Data were archived and analyzed with a 4-parameter fit to generate IC50 values using the CDD Vault from Collaborative Drug Discovery.

Assay [2] concerns the target full-length activated BTK (wildtype) (Homo sapiens (Human), UniProt Q06187). Briefly: AlphaScreen assay, wild-type BTK. The class given is biochemical. The settings on record: for inhibition at 10 µM: read-out: BTK % @ 10 uM, @ 10 uM. Here is the method:
as §1, §2, §3

full-length activated BTK (wildtype), sequence (Q06187 whole entry): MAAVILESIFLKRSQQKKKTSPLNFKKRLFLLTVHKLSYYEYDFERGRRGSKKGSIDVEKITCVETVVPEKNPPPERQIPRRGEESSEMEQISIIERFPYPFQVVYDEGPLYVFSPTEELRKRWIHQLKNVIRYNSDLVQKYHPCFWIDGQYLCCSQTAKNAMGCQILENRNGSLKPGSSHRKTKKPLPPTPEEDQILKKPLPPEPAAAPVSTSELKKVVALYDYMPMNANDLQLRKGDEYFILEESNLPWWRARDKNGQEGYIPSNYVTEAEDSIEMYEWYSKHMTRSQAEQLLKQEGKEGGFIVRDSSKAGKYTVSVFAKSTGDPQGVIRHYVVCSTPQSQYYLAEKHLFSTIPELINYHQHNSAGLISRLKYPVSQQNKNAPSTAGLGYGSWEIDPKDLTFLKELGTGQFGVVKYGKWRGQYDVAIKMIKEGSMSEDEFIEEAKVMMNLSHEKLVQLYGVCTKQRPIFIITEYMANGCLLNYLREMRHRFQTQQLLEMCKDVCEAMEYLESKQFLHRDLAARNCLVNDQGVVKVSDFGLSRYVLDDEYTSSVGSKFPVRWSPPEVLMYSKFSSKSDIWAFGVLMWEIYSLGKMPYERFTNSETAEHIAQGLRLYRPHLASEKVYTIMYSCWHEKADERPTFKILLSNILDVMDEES
full-length activated BTK mutant C481S, sequence (Q06187 whole entry C481S): as the sequence (Q06187 whole entry) above, with C481S counted along it

For the compound `N#Cc1cccc(NC(=O)c2ccc(C(=O)c3c[nH]c4ncnc(N[C@@H]5CC[C@@H](CO)OC5)c34)c(Cl)c2)c1` [Compound I-614, 3-chloro-N-(3-cyanophenyl)-4-(4-(((3R,6S)-6-(hydroxymethyl)tetrahydro-2H-pyran-3-yl)amino)-7H-pyrrolo[2,3-d]pyrimidine-5-carbonyl)benzamide], the IC50 in assay [1] was determined as 228 nM; in assay [2], 142 nM.
The like results for `O=C(c1ccc(C(=O)N2CCc3ccccc3C2)cc1Cl)c1c[nH]c2ncnc(N[C@@H]3CC[C@@H](CO)OC3)c12` [Compound I-615, (2-chloro-4-(1,2,3,4-tetrahydroisoquinoline-2-carbonyl)phenyl)(4-(((3R,6S)-6-(hydroxymethyl)tetrahydro-2H-pyran-3-yl)amino)-7H-pyrrolo[2,3-d]pyrimidin-5-yl)methanone] were, in that order, 34.1 nM and 86.4 nM.
The matching figures for `O=C(c1ccc(C(=O)N2CCN(c3ccccn3)CC2)cc1Cl)c1c[nH]c2ncnc(N[C@@H]3CC[C@@H](CO)OC3)c12` [Compound I-616, (3-chloro-4-(4-(((3R,6S)-6-(hydroxymethyl)tetrahydro-2H-pyran-3-yl)amino)-7H-pyrrolo[2,3-d]pyrimidine-5-carbonyl)phenyl)(4-(pyridin-2-yl)piperazin-1-yl)methanone]: 506 nM and 116 nM.
The like results for `O=C(c1ccc(C(=O)N2CCCCC2)cc1Cl)c1c[nH]c2ncnc(N[C@@H]3CC[C@@H](CO)OC3)c12` [Compound I-617, (3-chloro-4-(4-(((3R,6S)-6-(hydroxymethyl)tetrahydro-2H-pyran-3-yl)amino)-7H-pyrrolo[2,3-d]pyrimidine-5-carbonyl)phenyl)(piperidin-1-yl)methanone] were, in that order, 48.7 nM and 16.2 nM.
Regarding `O=C(NCc1ccccc1)c1ccc(C(=O)c2c[nH]c3ncnc(N[C@@H]4CC[C@@H](CO)OC4)c23)c(Cl)c1` [Compound I-618, N-benzyl-3-chloro-4-(4-(((3R,6S)-6-(hydroxymethyl)tetrahydro-2H-pyran-3-yl)amino)-7H-pyrrolo[2,3-d]pyrimidine-5-carbonyl)benzamide], the IC50 in assay [1] was 399 nM; in assay [2] it was 87.4 nM.
The like results for `Cn1cc(NC(=O)c2ccc(C(=O)c3c[nH]c4ncnc(N[C@@H]5CC[C@@H](CO)OC5)c34)c(Cl)c2)cn1` [Compound I-619, 3-chloro-4-(4-(((3R,6S)-6-(hydroxymethyl)tetrahydro-2H-pyran-3-yl)amino)-7H-pyrrolo[2,3-d]pyrimidine-5-carbonyl)-N-(1-methyl-1H-pyrazol-4-yl)benzamide] were, in that order, 942 nM and 376 nM.
As for `CN1CCN(C(=O)c2ccc(C(=O)c3c[nH]c4ncnc(N[C@@H]5CC[C@@H](CO)OC5)c34)c(Cl)c2)CC1` [Compound I-620, (3-chloro-4-(4-(((3R,6S)-6-(hydroxymethyl)tetrahydro-2H-pyran-3-yl)amino)-7H-pyrrolo[2,3-d]pyrimidine-5-carbonyl)phenyl)(4-methylpiperazin-1-yl)methanone], the inhibition at 10 µM in assay [1] was 70%. The compound further came in with an IC50 in assay [2] of 598 nM.
`O=C(NC1CC2(COC2)C1)c1ccc(C(=O)c2c[nH]c3ncnc(N[C@@H]4CC[C@@H](CO)OC4)c23)c(Cl)c1` [Compound I-621, 3-chloro-4-(4-(((3R,6S)-6-(hydroxymethyl)tetrahydro-2H-pyran-3-yl)amino)-7H-pyrrolo[2,3-d]pyrimidine-5-carbonyl)-N-(2-oxaspiro[3.3]heptan-6-yl)benzamide]: the inhibition at 10 µM in assay [1] turned out to be 85%. This compound also yielded an IC50 in assay [2] of 571 nM.
Turning to `CN1CCN(C(=O)c2ccc(Cl)c(C(=O)c3c[nH]c4ncnc(N[C@@H]5CC[C@@H](CO)OC5)c34)c2)CC1` [Compound I-622, (4-chloro-3-(4-(((3R,6S)-6-(hydroxymethyl)tetrahydro-2H-pyran-3-yl)amino)-7H-pyrrolo[2,3-d]pyrimidine-5-carbonyl)phenyl)(4-methylpiperazin-1-yl)methanone], the inhibition at 10 µM in assay [1] stood at 62%. In addition, in assay [2], the IC50 worked out at 847 nM.
With `O=C(c1cc(C(=O)N2CCCCC2)ccc1Cl)c1c[nH]c2ncnc(N[C@@H]3CC[C@@H](CO)OC3)c12` [Compound I-623, (4-chloro-3-(4-(((3R,6S)-6-(hydroxymethyl)tetrahydro-2H-pyran-3-yl)amino)-7H-pyrrolo[2,3-d]pyrimidine-5-carbonyl)phenyl)(piperidin-1-yl)methanone], the IC50 is 185 nM in assay [1] and 124 nM in assay [2].
For `COCCNC(=O)c1ccc(Cl)c(C(=O)c2c[nH]c3ncnc(N[C@@H]4CC[C@@H](CO)OC4)c23)c1` [Compound I-624, 4-chloro-3-(4-(((3R,6S)-6-(hydroxymethyl)tetrahydro-2H-pyran-3-yl)amino)-7H-pyrrolo[2,3-d]pyrimidine-5-carbonyl)-N-(2-methoxyethyl) benzamide], the inhibition at 10 µM in assay [1] was 53%. The compound also returned an IC50 in assay [2] of 1210 nM.
On to `O=C(c1cc(C(=O)N2CCc3ccccc3C2)ccc1Cl)c1c[nH]c2ncnc(N[C@@H]3CC[C@@H](CO)OC3)c12` [Compound I-625, (4-chloro-3-(4-(((3R,6S)-6-(hydroxymethyl)tetrahydro-2H-pyran-3-yl)amino)-7H-pyrrolo[2,3-d]pyrimidine-5-carbonyl)phenyl)(3,4-dihydroisoquinolin-2(1H)-yl)methanone], for which the IC50 in assay [1] was found to be 170 nM; in assay [2] it was 110 nM.
On to `O=C(NCCN1CCOCC1)c1ccc(Cl)c(C(=O)c2c[nH]c3ncnc(N[C@@H]4CC[C@@H](CO)OC4)c23)c1` [Compound I-626, 4-chloro-3-(4-(((3R,6S)-6-(hydroxymethyl)tetrahydro-2H-pyran-3-yl)amino)-7H-pyrrolo[2,3-d]pyrimidine-5-carbonyl)-N-(2-morpholinoethyl) benzamide], for which the figures for the IC50 in assay [1] and in assay [2] were 757 nM and 164 nM, respectively.
`O=C(c1cc(C(=O)N2CCN(c3ccccn3)CC2)ccc1Cl)c1c[nH]c2ncnc(N[C@@H]3CC[C@@H](CO)OC3)c12` [Compound I-627, (4-chloro-3-(4-(((3R,6S)-6-(hydroxymethyl)tetrahydro-2H-pyran-3-yl)amino)-7H-pyrrolo[2,3-d]pyrimidine-5-carbonyl)phenyl)(4-(pyridin-2-yl)piperazin-1-yl)methanone]: the IC50 came out at 664 nM in assay [1] and 777 nM in assay [2].
As for `O=C(NCc1ccccc1)c1ccc(Cl)c(C(=O)c2c[nH]c3ncnc(N[C@@H]4CC[C@@H](CO)OC4)c23)c1` [Compound I-628, N-benzyl-4-chloro-3-(4-(((3R,6S)-6-(hydroxymethyl)tetrahydro-2H-pyran-3-yl)amino)-7H-pyrrolo[2,3-d]pyrimidine-5-carbonyl)benzamide], the IC50 in assay [1] stood at 161 nM; in assay [2], 59.7 nM.
The like results for `Cn1cc(NC(=O)c2ccc(Cl)c(C(=O)c3c[nH]c4ncnc(N[C@@H]5CC[C@@H](CO)OC5)c34)c2)cn1` [Compound I-629, 4-chloro-3-(4-(((3R,6S)-6-(hydroxymethyl)tetrahydro-2H-pyran-3-yl)amino)-7H-pyrrolo[2,3-d]pyrimidine-5-carbonyl)-N-(1-methyl-1H-pyrazol-4-yl)benzamide] were, in that order, 804 nM and 89.5 nM.
In the case of `N#Cc1cccc(NC(=O)c2ccc(Cl)c(C(=O)c3c[nH]c4ncnc(N[C@@H]5CC[C@@H](CO)OC5)c34)c2)c1` [Compound I-630, 4-chloro-N-(3-cyanophenyl)-3-(4-(((3R,6S)-6-(hydroxymethyl)tetrahydro-2H-pyran-3-yl)amino)-7H-pyrrolo[2,3-d]pyrimidine-5-carbonyl)benzamide], the figures for the IC50 in assay [1] and in assay [2] were 189 nM and 18.4 nM, respectively.
The like results for `O=C(Nc1ccccc1)c1ccc(Cl)c(C(=O)c2c[nH]c3ncnc(N[C@@H]4CC[C@@H](CO)OC4)c23)c1` [Compound I-631, 4-chloro-3-(4-(((3R,6S)-6-(hydroxymethyl)tetrahydro-2H-pyran-3-yl)amino)-7H-pyrrolo[2,3-d]pyrimidine-5-carbonyl)-N-phenylbenzamide] were, in that order, 177 nM and 52.1 nM.
Turning to `O=C(c1ccc(C(=O)N2CCOCC2)cc1)c1c[nH]c2ncnc(N[C@@H]3CC[C@@H](CO)OC3)c12` [Compound I-632, (4-(((3R,6S)-6-(hydroxymethyl)tetrahydro-2H-pyran-3-yl)amino)-7H-pyrrolo[2,3-d]pyrimidin-5-yl)(4-(morpholine-4-carbonyl)phenyl) methanone], the results for the inhibition at 10 µM in assay [1] and in assay [2] were 66% and 84%, respectively.
The matching figures for `Cn1cc(NC(=O)c2ccc(C(=O)c3c[nH]c4ncnc(N[C@@H]5CC[C@@H](CO)OC5)c34)cc2)cn1` [Compound I-633, 4-(4-(((3R,6S)-6-(hydroxymethyl)tetrahydro-2H-pyran-3-yl)amino)-7H-pyrrolo[2,3-d]pyrimidine-5-carbonyl)-N-(1-methyl-1H-pyrazol-4-yl)benzamide]: 50% and 77%.
